Patent US20210238138A1, “Method for improving nucleation of crystals from solution” (Université Libre de Bruxelles, priority 2018, published 2021)

Columns and labels:
[1] = Cooling crystallisation of Brivaracetam/IPAc in capillary tubing; type: physicochemical; settings: 7 m tubing; for Appearance of crystals: 30 mL/min, 1 restriction, bath 20° C., initial 45° C.
Description: For example, following tests were made on Brivaracetam/IPAc (IsoPropylAcetate) at different concentrations. Induction time (appearance of crystals) is shown in table 1 for different increasing concentrations at a crystallization temperature of 20° C. after flowing through the tube at 30 mL/min in a 7 m long tubing.
(so same overall supersaturation). The variation in crystal size is shown without and with a 5 cm long 500 μm restriction. “Needles and rods” indicate appearance of concurring crystallizations of the two possible crystal types of Brivaracetam. Therefore the method also influences selectivity for one single crystal form. In the case of Brivaracetam, rods are preferred.
The advantage of using restriction(s) has already been indicated in previous tables. A series of tests was also performed using identical conditions and only changing the number of identical restrictions. In table 3, the tests were performed with restrictions of 1 mm in length and having an inner diameter of 500 μm. Crystal length decreases drastically when placing more restrictions in series in the tubing line.
Also different geometries of restriction were tested on Brivaracetam/IPAc mixtures: different lengths and different inner diameters.
The crystallization temperature is controlled by a water bath containing about 5 L of water, temperature is monitored at all times by a thermocouple. This water is cooled by a 1 m long cupper serpentine plunged into the bath with cooling liquid flowing from and to a cryothermostat, the water bath itself is agitated with a magnetic bar stirrer. The internal volume of a 7 m long tubing of […] is about 22 mL. As this volume is 220 times smaller than the volume of the present water it is assumed that the water temperature remains within a 0.5° C. or smaller margin of the set temperature value.

[2] = Antisolvent (hexane) crystallisation of Brivaracetam/IPAc in capillary tubing; type: physicochemical; settings: for Crystals Mean maximum length: inner diameter 500 μm, flows 20 and 20 mL · min^−1
Description: The length of the capillary tube has also been varied. In the following tests, antisolvent hexane at 4° C. was added to a solution of Brivaracetam/IPAc. It became clear that for these cases different lengths of tubing are to be investigated, as too long tube results into blockage of the tubes due to too high solid content in suspension in the solution, as reported in table 6. In all cases, the preferred rods form was observed.

[3] = test 2: 600 mg/mL in IPAc, Tc 0° C., σ 11, Q 43 mL/min, no restriction
[4] = test 3: 600 mg/mL in IPAc, Tc 0° C., σ 11, Q 32 mL/min, no restriction
[5] = test 4: 600 mg/mL in IPAc, Tc 0° C., σ 11, Q 21 mL/min, no restriction
[6] = test 6: 600 mg/mL in IPAc, Tc 0° C., σ 11, Q 43 mL/min, restriction 5 cm long, 500 μm
[7] = test 7: 600 mg/mL in IPAc, Tc 0° C., σ 11, Q 32 mL/min, restriction 5 cm long, 500 μm
[8] = test 8: 600 mg/mL in IPAc, Tc 0° C., σ 11, Q 21 mL/min, restriction 5 cm long, 500 μm
[9] = test 9: 400 mg/mL in IPAc, Tc 10° C., σ 4.7, Q 30 mL/min, 0 restrictions
[10] = test 9 as listed in Table 4: 400 mg/mL in IPAc, Tc 10° C., σ 4.7, Q 30 mL/min, restriction none
[11] = test 10: 400 mg/mL in IPAc, Tc 10° C., σ 4.7, Q 30 mL/min, 1 restriction 1 mm long, 500 μm
[12] = test 11: 400 mg/mL in IPAc, Tc 10° C., σ 4.7, Q 30 mL/min, 1 restriction 1 mm long, 500 μm
[13] = test 12: 400 mg/mL in IPAc, Tc 10° C., σ 4.7, Q 30 mL/min, 2 restrictions 1 mm long, 500 μm
[14] = test 13: 400 mg/mL in IPAc, Tc 10° C., σ 4.7, Q 30 mL/min, 2 restrictions 1 mm long, 500 μm
[15] = test 14: 400 mg/mL in IPAc, Tc 10° C., σ 4.7, Q 30 mL/min, 3 restrictions 1 mm long, 500 μm
[16] = test 15: 400 mg/mL in IPAc, Tc 10° C., σ 4.7, Q 30 mL/min, 3 restrictions 1 mm long, 500 μm
[17] = test 16: 400 mg/mL in IPAc, Tc 10° C., σ 4.7, Q 30 mL/min, 4 restrictions 1 mm long, 500 μm
[18] = test 17: 400 mg/mL in IPAc, Tc 10° C., σ 4.7, Q 30 mL/min, one restriction length 5 cm, diameter 500 μm
[19] = test 18: 400 mg/mL in IPAc, Tc 10° C., σ 4.7, Q 30 mL/min, one restriction length 5 cm, diameter 750 μm
[20] = test 19: 400 mg/mL in IPAc, Tc 10° C., σ 4.7, Q 30 mL/min, one restriction length 20 cm, diameter 500 μm
[21] = test 20: 400 mg/mL in IPAc, Tc 10° C., σ 4.7, Q 30 mL/min, one restriction length 50 cm, diameter 500 μm
[22] = test 21: 400 mg/mL in IPAc, Tc 10° C., σ 4.7, Q 30 mL/min, one restriction length 100 cm, diameter 500 μm

SMILES: CCC[C@@H]1CC(=O)N([C@@H](CC)C(N)=O)C1 [Brivaracetam]
- Appearance of crystals ([1]; 150 mg/mL in IPAc, supersaturation 0.09): None
- Appearance of crystals ([1]; 200 mg/mL in IPAc, supersaturation 0.47): None
- Appearance of crystals ([1]; 250 mg/mL in IPAc, supersaturation 0.83): 20 h
- Appearance of crystals ([1]; 300 mg/mL in IPAc, supersaturation 1.21): 2 h
- Appearance of crystals ([1]; 350 mg/mL in IPAc, supersaturation 1.57): 0.5 h
- Appearance of crystals ([1]; 400 mg/mL in IPAc, supersaturation 1.94): Immediate
- Appearance of crystals ([1]; 500 mg/mL in IPAc, supersaturation 2.68): Immediate
- Appearance of crystals ([1]; 600 mg/mL in IPAc, supersaturation 3.41): Immediate, white slurry
- Appearance of crystals ([1]; 800 mg/mL in IPAc, supersaturation 4.88): Immediate, white slurry
- Appearance crystals ([1]; test 1: 600 mg/mL in IPAc, Tc 0° C., σ 11, Q 54 mL/min, no restriction): Needles
- Appearance crystals [1, 3]: Rods
- Crystal length [1, 3]: 1020 ± 196 μm
- J (nucleation rate) [1, 3]: 2 100 mL^−1 · s^−1
- Appearance crystals [1, 4]: Rods
- Crystal length [1, 4]: 365 ± 106 μm
- J (nucleation rate) [1, 4]: 43 000 mL^−1 · s^−1
- Appearance crystals [1, 5]: Rods
- Crystal length [1, 5]: 258 ± 76 μm
- J (nucleation rate) [1, 5]: 121 000 mL^−1 · s^−1
- Appearance crystals ([1]; test 5: 600 mg/mL in IPAc, Tc 0° C., σ 11, Q 54 mL/min, restriction 5 cm long, 500 μm): Needles
- Appearance crystals [1, 6]: Rods
- Crystal length [1, 6]: 227 ± 64 μm
- J (nucleation rate) [1, 6]: 181 000 mL^−1 · s^−1
- Appearance crystals [1, 7]: Rods
- Crystal length [1, 7]: 121 ± 33 μm
- J (nucleation rate) [1, 7]: 1 200 000 mL^−1 · s^−1
- Appearance crystals [1, 8]: Rods
- Crystal length [1, 8]: 175 ± 100 μm
- J (nucleation rate) [1, 8]: 400 000 mL^−1 · s^−1
- Appearance crystals [1, 9]: Rods
- Crystal length [1, 9]: 195 μm
- J (nucleation rate) [1, 9]: 66 000 mL.^−1s^−1
- Appearance crystals [1, 10]: Rods
- Crystal length [1, 10]: 195 μm
- J (nucleation rate) [1, 10]: 131 000 mL^−1 · s^−1
- Appearance crystals [1, 11]: Rods
- Crystal length [1, 11]: 62 μm
- J (nucleation rate) [1, 11]: 3 085 000 mL.^−1s^−1
- Appearance crystals [1, 12]: Rods
- Crystal length [1, 12]: 62 μm
- J (nucleation rate) [1, 12]: 1 609 000 mL.^−1s^−1
- Appearance crystals [1, 13]: Rods
- Crystal length [1, 13]: 46 μm
- J (nucleation rate) [1, 13]: 8 500 000 mL.^−1s^−1
- Appearance crystals [1, 14]: Rods
- Crystal length [1, 14]: 43 μm
- J (nucleation rate) [1, 14]: 7 300 000 mL.^−1s^−1
- Appearance crystals [1, 15]: Rods
- Crystal length [1, 15]: 37 μm
- J (nucleation rate) [1, 15]: 12 000 000 mL.^−1s^−1
- Appearance crystals [1, 16]: Rods
- Crystal length [1, 16]: 40 μm
- J (nucleation rate) [1, 16]: 11 500 000 mL.^−1s^−1
- Appearance crystals [1, 17]: Rods
- Crystal length [1, 17]: 35 μm
- J (nucleation rate) [1, 17]: 9 700 000 mL.^−1s^−1
- Appearance crystals [1, 18]: Rods
- Crystal length [1, 18]: 143 μm
- J (nucleation rate) [1, 18]: 310 000 mL^−1 · s^−1
- Appearance crystals [1, 19]: Rods
- Crystal length [1, 19]: 120 μm
- J (nucleation rate) [1, 19]: 500 000 mL^−1 · s^−1
- Appearance crystals [1, 20]: Rods
- Crystal length [1, 20]: 95 μm
- J (nucleation rate) [1, 20]: 642 000 mL^−1 · s^−1
- Appearance crystals [1, 21]: Rods
- Crystal length [1, 21]: 207 μm
- J (nucleation rate) [1, 21]: 132 000 mL^−1 · s^−1
- Appearance crystals [1, 22]: Rods
- Crystal length [1, 22]: 211 μm
- J (nucleation rate) [1, 22]: 107 000 mL^−1 · s^−1
- Crystal form observed ([2]; all antisolvent (hexane) tests of tables 5 and 6): rods
- Crystals Mean maximum length ([2]; test 22: 150 mg · mL^−1 in IPAc, σ 8.4, hexane antisolvent, tubular length 18 cm): 6 ± 2 μm
- Crystals Mean maximum length ([2]; test 23: 150 mg · mL^−1 in IPAc, σ 8.4, hexane antisolvent, tubular length 33 cm): 9 ± 5 μm
- Crystals Mean maximum length ([2]; test 24: 150 mg · mL^−1 in IPAc, σ 8.4, hexane antisolvent, tubular length 50 cm): 10 ± 5 μm
- Crystals Mean maximum length ([2]; test 25: 150 mg · mL^−1 in IPAc, σ 8.4, hexane antisolvent, tubular length 50 cm): 9 ± 4 μm
- Crystals Mean maximum length ([2]; test 26: 150 mg · mL^−1 in IPAc, σ 8.4, hexane antisolvent, tubular length 100 cm): Blocked tube
- Crystals Mean maximum length ([2]; test 27: 200 mg · mL^−1 in IPAc, σ 11.5, hexane antisolvent, tubular length 18 cm): 12 ± 6 μm
- Crystals Mean maximum length ([2]; test 28: 200 mg · mL^−1 in IPAc, σ 11.5, hexane antisolvent, tubular length 33 cm): 7 ± 3 μm
- Crystals Mean maximum length ([2]; test 29: 200 mg · mL^−1 in IPAc, σ 11.5, hexane antisolvent, tubular length 50 cm): 9 ± 5 μm
- Crystals Mean maximum length ([2]; test 30: 200 mg · mL^−1 in IPAc, σ 11.5, hexane antisolvent, tubular length 50 cm): 7 ± 3 μm
- Crystals Mean maximum length ([2]; test 31: 200 mg · mL^−1 in IPAc, σ 11.5, hexane antisolvent, tubular length 100 cm): Blocked tube
- Crystals Mean maximum length ([2]; test 32: 300 mg · mL^−1 in IPAc, σ 17.8, hexane antisolvent, tubular length 50 cm): 8 ± 3 μm
- Crystals Mean maximum length ([2]; test 33: 300 mg · mL^−1 in IPAc, σ 17.8, hexane antisolvent, tubular length 100 cm): Blocked tube
